# Structures can show the parent of a compound that is named as a salt. Where two headings read alike, the source gives them in different places. Peptide text beside a SMILES is read from it. * marks the point of attachment. Cbz = O=C(OCc1ccccc1)*
# Key:
# Vero E6 EGFP cells [1] = system: Vero E6 EGFP cells
# [2] = Cytotoxicity assessment in dose response without virus infection; conditions: Chlorocebus sabaeus (African green monkey)
# Vero E6 EGFP cells [3] = test: as above; conditions: cytotoxicity in the absence of virus, Vero E6 EGFP, 33 µM to 10 nM
# in vitro = conditions: Chlorocebus sabaeus (African green monkey)
# SARS-CoV-2 [4] = system: SARS-CoV-2
# SARS-CoV-2 [5] = test: microbe, parasite or virus in culture
# SARS-CoV-2 [6] = test: Primary anti-cytopathicity assay development: control compound profiling, 384-well plates; format: cell-based, Severe acute respiratory syndrome coronavirus 2; conditions: mean
# SARS CoV-2 = system: SARS CoV-2; set-up: method as in PMID 32473310; conditions: VERO-E6 cells; cited from earlier work
# coronavirus OCR43 = system: coronavirus OCR43; set-up: method as in PMID 33324406; conditions: LLC-MK2 cells; cited from earlier work
# [7] = ratio of cytotoxic to anti-cytopathic effects
# [8] = Severe acute respiratory syndrome coronavirus 2, Vero C1008, 96 h
# [9] = Severe acute respiratory syndrome coronavirus 2, read-out: Average IC50, d3 of incubation, 4000 cells seeded
# [10] = Severe acute respiratory syndrome coronavirus 2, read-out: Average IC50, d3 of incubation, 8000 cells seeded
# [11] = Severe acute respiratory syndrome coronavirus 2, read-out: Average IC50, d4 of incubation, 4000 cells seeded
# [12] = Severe acute respiratory syndrome coronavirus 2, read-out: Average IC50, d4 of incubation, 8000 cells seeded
# [13] = Severe acute respiratory syndrome coronavirus 2, read-out: Average IC50, d5 of incubation, 8000 cells seeded
# [14] = Severe acute respiratory syndrome coronavirus 2, read-out: Average IC50, d5 of incubation, 4000 cells seeded
molecule,measurement,setting,value
OCCNC1CCCc2c1[nH]c1ccc(-c3ccccc3)cc21 (centres unmarked) [casin],CC50,Vero E6 EGFP cells [1],> 33 µM
CC(C)C[C@@H](C=O)NC(=O)[C@H](CC(C)C)NC(=O)[C@H](CC(C)C)NC(=O)OCc1ccccc1 [MG-132] (Cbz-Leu-Leu-Leu-aldehyde),CC50 at 4 days,[2],2.9 µM
O=C(c1c2ccccc2cc2ccccc12)N1CCC(N2CCC[C@@H](C(=O)N3CCOCC3)C2)CC1 [CP-640186],CC50,Vero E6 EGFP cells [3],10.2 µM
C[C@@H]1C[C@@H]([C@H](O)CC2CC(=O)NC(=O)C2)C(=O)[C@@H](C)C1 [Cycloheximide],CC50,in vitro,10.2 µM
Nc1ncnc2c1ncn2[C@@H]1CC[C@@H](O)[C@H]1O [DHCaA],CC50,Vero E6 EGFP cells [1],15.7 µM
CC(C)(C)NCc1ccc(Nc2ccnc3cc(Cl)ccc23)cc1O [N-tert-Butylisoquine],CC50 at 4 days,in vitro,12.4 µM
Nc1cc2c3ccccc3ccc2c2ccccc12 [6-amino-chrysene],SI (CC50/IC50),SARS-CoV-2 [4]; [7],2.84
same,CC50,in vitro,> 33 µM
same,IC50,SARS-CoV-2 [5]; [8],11.6 µM
CCCCCCCCCCCCCCOc1ccc(C(=O)O)o1 [KD-023],IC50,SARS-CoV-2 [4],4.04 µM
same,SI (CC50/IC50),SARS-CoV-2 [4]; [7],8.17
"Cc1ccc(NC(=O)c2ccc(CN3CCN(C)CC3)cc2)cc1Nc1nc(-c2cccnc2)cs1 [Masitinib (AB1010), Masitinib]",IC50,SARS-CoV-2 [5]; [8],< 20 µM
same,CC50 at 4 days,[2],> 33 µM
O=C(Nc1ccc([N+](=O)[O-])cc1Cl)c1cc(Cl)ccc1O [Niclosamide],SI (CC50/IC50),SARS-CoV-2 [4],8.05
same,IC50,SARS-CoV-2 [5]; [8],4.1 µM
same,CC50 at 4 days,[2],> 33 µM
"CCN(CCO)CCCC(C)Nc1ccnc2cc(Cl)ccc12 (centres unmarked) [Hydroxychloroquine, hydroxychloroquine]",IC50,SARS-CoV-2 [6]; [9],16.4 µM
same,IC50,SARS-CoV-2 [6]; [10],15.8 µM
same,IC50,SARS-CoV-2 [6]; [11],21 µM
same,IC50,SARS-CoV-2 [6]; [12],25.8 µM
same,IC50,SARS-CoV-2 [6]; [13],43.6 µM
"COc1ccc2cc1Oc1ccc(cc1)C[C@H]1c3cc(c(OC)cc3CCN1C)Oc1c(OC)c(OC)cc3c1[C@H](C2)N(C)CC3 [Tetrandrine (Fanchinine), Tetrandrine]",CC50 at 4 days,[2],> 33 µM
Cc1cc(O)c2c(=O)c3c(O)cc(O)c4c5c(O)cc(O)c6c(=O)c7c(O)cc(C)c8c1c2c(c34)c(c78)c65 [Hypericin],SI (CC50/IC50),SARS-CoV-2 [4]; [7],5.24
same,CC50,in vitro,1.31 µM
same,IC50,SARS-CoV-2 [5]; [8],0.25 µM
Cc1cccc(Nc2nc(-c3ccncc3)cs2)c1 [STF-62247],CC50,Vero E6 EGFP cells [3],31.5 µM
CCN1CCN(Cc2ccc(-c3cc4c(N[C@H](C)c5ccccc5)ncnc4[nH]3)cc2)CC1 [AEE788],SI (CC50/IC50),SARS-CoV-2 [4]; [7],8.38
same,IC50,SARS-CoV-2 [5]; [8],3.94 µM
same,CC50 at 4 days,[2],> 33 µM
3'-fluoro-benzyl-spiperone,CC50,Vero E6 EGFP cells [3],27.4 µM
CCN(CC)c1ccc2cc(-c3nc4ccccc4[nH]3)c(=O)oc2c1 [Coumarin 7],IC50,SARS-CoV-2 [4],0.36 µM
same,SI (CC50/IC50),SARS-CoV-2 [4],91.67
CC(C)(O)CNc1ncc(-c2ccnc(Nc3ccnc(Cl)c3)n2)c(CC2CC2)n1 [VPS34-IN-1],CC50,in vitro,26.8 µM
COc1ccc2c(c1)[C@]1(C[C@H]1c1ccc3c(/C=C/c4ccc(CN5C[C@@H](C)O[C@@H](C)C5)cc4)n[nH]c3c1)C(=O)N2 [CFI-400945],CC50 at 4 days,in vitro,> 33 µM
COc1cc(NCc2ccc3nc(N)nc(N)c3c2C)cc(OC)c1OC [Trimetrexate],IC50,SARS-CoV-2 [4],< 20 µM
same,CC50 at 4 days,[2],1.99 µM
Cc1c(O)cccc1C(=O)N[C@@H](CSc1ccccc1)[C@H](O)CN1C[C@H]2CCCC[C@H]2C[C@H]1C(=O)NC(C)(C)C [[…]],CC50,in vitro,> 33 µM
Cc1cc(O[C@@H](CCC(F)(F)F)c2ccc(C(=O)NCCC(=O)O)cc2)cc(C)c1-c1ccc(C(C)(C)C)cc1 [Adomeglivant],CC50 at 4 days,in vitro,> 33 µM
O=C1OC2(c3ccc(O)cc3Oc3cc(O)ccc32)c2ccccc21 [Fluorescein],SI (CC50/IC50),SARS-CoV-2 [4]; [7],49.25
same,IC50,SARS-CoV-2 [5]; [8],0.67 µM
same,CC50 at 4 days,[2],> 33 µM
CC(=O)[C@]1(N)Cc2c(O)c3c(c(O)c2[C@@H](O[C@H]2C[C@H](O)[C@H](O)CO2)C1)C(=O)c1ccccc1C3=O [Amrubicin],SI (CC50/IC50),SARS-CoV-2 [4]; [7],100.00
same,CC50,in vitro,> 33 µM
same,IC50,SARS-CoV-2 [5]; [8],0.33 µM
CCN(CC)CCOc1ccc(C(=C(Cl)c2ccccc2)c2ccccc2)cc1 [Clomiphene citrate],CC50 at 4 days,[2],> 33 µM
O=C(c1c2ccccc2cc2ccccc12)N1CCC(N2CCC[C@@H](C(=O)N3CCOCC3)C2)CC1 [CP-640186 (hydro-chloride)],CC50,Vero E6 EGFP cells [1],10.9 µM
Cc1[nH]c(/C=C2\C(=O)Nc3ccc(S(=O)(=O)Cc4c(Cl)cccc4Cl)cc32)c(C)c1C(=O)N1CCC[C@@H]1CN1CCCC1 [PHA-665752],CC50,in vitro,> 33 µM
"Cc1cccc(C)c1OCC(=O)N[C@@H](Cc1ccccc1)[C@@H](O)C[C@H](Cc1ccccc1)NC(=O)[C@H](C(C)C)N1CCCNC1=O [Lopinavir, lopinavir]",IC50,SARS-CoV-2 [6]; [9],9.21 µM
same,IC50,SARS-CoV-2 [6]; [10],7.58 µM
same,IC50,SARS-CoV-2 [6]; [11],11.3 µM
same,IC50,SARS-CoV-2 [6]; [12],12 µM
same,IC50,SARS-CoV-2 [6]; [13],21.1 µM
"CN1CCN(C2CCN(C(=O)Nc3cc(Oc4ccc(NC(=O)C5(C(=O)Nc6ccc(F)cc6)CC5)c(F)c4)ccn3)CC2)CC1 [Golvatinib (E7050), Golvatinib]",SI (CC50/IC50),SARS-CoV-2 [4]; [7],5.60
same,CC50 at 4 days,in vitro,> 33 µM
same,IC50,SARS-CoV-2 [5]; [8],5.89 µM
"CCN(CC)CCCC(C)Nc1ccnc2cc(Cl)ccc12 (centres unmarked) [Chloroquine, chloroquine]",IC50,SARS-CoV-2 [6]; [9],11.3 µM
same,IC50,SARS-CoV-2 [6]; [10],8.69 µM
same,IC50,SARS-CoV-2 [6]; [11],13.4 µM
same,IC50,SARS-CoV-2 [6]; [12],13.5 µM
same,IC50,SARS-CoV-2 [6]; [14],13.5 µM
same,IC50,SARS-CoV-2 [6]; [13],17.1 µM
Nc1nc2nn[nH]c2c(=O)[nH]1 [8-Azaguanine],SI (CC50/IC50),SARS-CoV-2 [4],2.79
same,CC50,in vitro,10.4 µM
same,IC50,SARS-CoV-2 [5]; [8],3.72 µM
O=C(c1ccc(OCCN2CCCCC2)cc1)c1c(-c2ccc(O)cc2)sc2cc(O)ccc12 [Raloxifene hydrochloride],IC50,SARS-CoV-2 [4],15.4 µM
same,SI (CC50/IC50),SARS-CoV-2 [4],2.14
same,activity in phenotypic assay of SARS CoV-2 viral infection,SARS CoV-2,active
same,activity against coronavirus OCR43,coronavirus OCR43,active
same,IC50,SARS-CoV-2 [5]; [8],< 20 µM
same,CC50 at 4 days,[2],> 33 µM
CNCc1ccc(-c2cc(-c3nc(-c4ccc(S(=O)(=O)C(C)C)cc4)cnc3N)on2)cc1 [VE-822],IC50,SARS-CoV-2 [4],< 20 µM
same,SI (CC50/IC50),SARS-CoV-2 [4]; [7],3.75
same,CC50 at 4 days,in vitro,10 µM
CCCCN(CCCC)CCC(O)c1cc2c(Cl)cc(Cl)cc2c2cc(C(F)(F)F)ccc12 (centres unmarked) [Halofantrine hydrochloride],CC50 at 4 days,[2],> 33 µM
Nc1nc2c(ncn2[C@@H]2O[C@H](CO)[C@@H](O)[C@H]2O)c(=S)[nH]1 [Thioguanosine],CC50,in vitro,> 33 µM
Nc1c[nH]c(=O)c2cc(-c3ccccc3)sc12 [Thieno-pyridone],IC50,SARS-CoV-2 [4],5.26 µM
same,SI (CC50/IC50),SARS-CoV-2 [4]; [7],6.27
same,CC50,Vero E6 EGFP cells [1],> 33 µM
"CCC(CC)COC(=O)[C@H](C)N[P@](=O)(OC[C@H]1O[C@@](C#N)(c2ccc3c(N)ncnn23)[C@H](O)[C@@H]1O)Oc1ccccc1 [Remdesivir, remdesivir]",IC50,SARS-CoV-2 [6]; [9],2.73 µM
same,IC50,SARS-CoV-2 [6]; [10],1.56 µM
same,IC50,SARS-CoV-2 [6]; [11],3.74 µM
same,IC50,SARS-CoV-2 [6]; [12],2.27 µM
same,IC50,SARS-CoV-2 [6]; [14],4.67 µM
same,IC50,SARS-CoV-2 [6]; [13],2.99 µM
same,IC50,"SARS-CoV-2 [5]; Severe acute respiratory syndrome coronavirus 2, Vero C1008, read-out: IC50 (%Confluence versus compound concentration), positive control, curve fitting example Fig. 4",1.7 µM
CCN(CC)Cc1cc(Nc2ccnc3cc(Cl)ccc23)ccc1O [Amodiaquine],SI (CC50/IC50),SARS-CoV-2 [4],4.12
same,IC50,SARS-CoV-2 [5]; [8],4.07 µM
same,CC50 at 4 days,[2],16.8 µM
COc1cc(C[C@H]2c3cc(OC)c(OC)cc3CCN2C)c(Oc2cc3c(cc2OC)-c2c(OC)c(OC)cc4c2[C@H](C3)N(C)CC4)cc1OC [Thaliblastine],IC50,SARS-CoV-2 [4],3.87 µM
same,SI (CC50/IC50),SARS-CoV-2 [4]; [7],8.53
Rhodamine-123,IC50,SARS-CoV-2 [4],0.8 µM
same,SI (CC50/IC50),SARS-CoV-2 [4]; [7],41.25
"COc1cc2c(N3CCN(C(=O)Nc4ccc(OC(C)C)cc4)CC3)ncnc2cc1OCCCN1CCCCC1 [Tandutinib (MLN518), Tandutinib]",IC50,SARS-CoV-2 [4],< 20 µM
same,CC50,in vitro,> 33 µM
CC(C)COCC(CN(Cc1ccccc1)c1ccccc1)N1CCCC1 (centres unmarked) [Bepridil],CC50 at 4 days,[2],23.4 µM

# Reference: paper PMC9279437, “Cytopathic SARS-CoV-2 screening on VERO-E6 cells in a large-scale repurposing effort” (Scientific Data, 2022)
